Experimental data reported in paper PMC3166071, “Ancient Antimicrobial Peptides Kill Antibiotic-Resistant Pathogens: Australian Mammals Provide New Options” (PLoS ONE, 2011).
In brackets after ≈: the same amount, converted by molar mass. Where two headings read alike, the source gives them in different places. Where no end group is shown, it is not given here.

How the values were obtained:
E. coli DH5α = test: microbe, parasite or virus in culture; assay type: cell-based, Escherichia coli; settings: for Relative potency of WAM1: against E. coli, WAM1 relative to the antibiotic of the line
Method: (§1) Peptides were synthesized and HPLC purified (AusPep Pty Ltd). The two-stage radial diffusion assay used in this study has been described elsewhere. Briefly, ∼4×10^6 of mid-logarithmic-phase organisms were mixed into 10 ml of warm 0.8% agarose containing 0.03% (w/v) Trypticase soy broth (TSB) powder buffered with 10 mM sodium phosphate, pH 7.4. The synthetic peptides were serially diluted in 0.01% acetic acid and 5 µl peptide samples were loaded in 2.5 mm diameter wells. The plates were covered, and incubated at 37°C. After 3 hours, a 10 ml overlay gel composed of 6% TSB, 0.8% agarose in 10 mM sodium phosphate buffer (pH 7.4) was poured onto the plates. The plates were incubated overnight to allow the surviving organisms to form microcolonies. The clear zone was measured using a magnified transilluminator and expressed in units (1 mm = 10 U) after subtracting the well diameter. The MIC is defined by the χ intercept of a regression line through zone diameters obtained from a series of serially diluted peptide samples. For multidrug-resistant bacteria, MICs were measured as described by micro-broth dilution in Mueller-Hinton broth (Oxoid, Hampshire, England) according to according to Clinical and Laboratory Standards Institute (CLSI) standards. The MIC measurements were performed in duplicate and the data incorporated into a final MIC using standard methods. All the bacterial strains were tested on at least two different occasions. Mid-logarithmic phase cultures of P. aeruginosa 19056 muc were diluted in Mueller–Hinton broth to yield approximately 10^6 cfu/ml. Peptides were added at the indicated concentrations and the suspensions were then incubated for different times in a shaking water bath at 35°C. At the end of each incubation time, the samples were serially diluted in buffered saline and plated onto nutrient agar with a spiral plater (Don Whitley Scientific, Australia). Colonies were counted after 17–22 h incubation at 35°C using an automatic colony counter (Don Whitley Scientific, Australia).

[1] = test system: Strep. pyogenes (ATCC 19615); assay type: cell-based
Method: as §1

[2] = test system: Sal. enterica (ATCC 14028); assay type: cell-based
Method: as §1

Strep. uberis = assay type: cell-based, Streptococcus uberis
Method: as §1

B. subtilis = assay type: cell-based, Bacillus subtilis
Method: as §1

C. albicans (ATCC 753) = assay type: cell-based, Candida albicans
Method: as §1

K. pneumoniae [3] = assay type: cell-based, Klebsiella pneumoniae; settings: 3 h
Method: Figure 3 Time course of K. pneumoniae killing by WAM1 in broth. Time marked in minutes. […] Antimicrobial assays were performed as described previously.
Peptides were synthesized and HPLC purified (AusPep Pty Ltd). The two-stage radial diffusion assay used in this study has been described elsewhere. Briefly, ∼4×10^6 of mid-logarithmic-phase organisms were mixed into 10 ml of warm 0.8% agarose containing 0.03% (w/v) Trypticase soy broth (TSB) powder buffered with 10 mM sodium phosphate, pH 7.4. The synthetic peptides were serially diluted in 0.01% acetic acid and 5 µl peptide samples were loaded in 2.5 mm diameter wells. The plates were covered, and incubated at 37°C. After 3 hours, a 10 ml overlay gel composed of 6% TSB, 0.8% agarose in 10 mM sodium phosphate buffer (pH 7.4) was poured onto the plates. The plates were incubated overnight to allow the surviving organisms to form microcolonies. The clear zone was measured using a magnified transilluminator and expressed in units (1 mm = 10 U) after subtracting the well diameter. […] For multidrug-resistant bacteria, MICs were measured as described by micro-broth dilution in Mueller-Hinton broth (Oxoid, Hampshire, England) according to according to Clinical and Laboratory Standards Institute (CLSI) standards. […] Colonies were counted after 17–22 h incubation at 35°C using an automatic colony counter (Don Whitley Scientific, Australia).

A. baumannii = assay type: cell-based, Acinetobacter baumannii; settings: 3 h
Method: as §1

[4] = test system: P. aeruginosa (ATCC 27853); assay type: cell-based, Pseudomonas aeruginosa; settings: ATCC 27853, 3 h, pH 7.4
Method: as §1

P. aeruginosa = assay type: cell-based, Pseudomonas aeruginosa; settings: 3 h
Method: as §1

human red blood cells = assay type: cell-based
Method: Figure 4 Toxicity of WAM1 on human red blood cells. Haemolytic activity was determined by treating human red blood cells with different concentrations of WAM1 and haemoglobin release measured by absorbance at 450 nm. Samples were incubated at 37°C for 1 hour. PBS and 1% Tween-20 were used as negative and positive controls, representing 0% and 100% hemolytic activity respectively.

S. aureus (ATCC 25923) = assay type: cell-based, Staphylococcus aureus; settings: ATCC 25923, 3 h, pH 7.4
Method: as §1

K. pneumoniae [5] = assay type: cell-based, Klebsiella pneumoniae; settings: 3 h; remark: listed apart in the source
Method: as §1

[6] = Escherichia coli, Table 2, against E. coli, comparison of WAM1 with antibiotics, read-out: MIC
[7] = DH5α, 3 h, pH 7.4, read-out: MIC

`CC1(C)S[C@@H]2[C@H](NC(=O)[C@H](N)c3ccccc3)C(=O)N2[C@H]1C(=O)O` [Ampicillin] was tested. Which MIC (E. coli DH5α; [6]) did it give?
Its MIC is 5.7 µM (≈ 1.99 µg/mL).

What about the “Relative potency of WAM1” value (E. coli DH5α) of the same compound?
Its value is 12 x.

What does the source list for `O=C(N[C@H](CO)[C@H](O)c1ccc([N+](=O)[O-])cc1)C(Cl)Cl` [Chloramphenicol]?
MIC (E. coli DH5α; Escherichia coli): 12.4 µM (≈ 4.01 µg/mL); Relative potency of WAM1 (E. coli DH5α): 26 x

Which MIC ([1]; Strep. pyogenes (ATCC 19615), two-stage radial diffusion, 10 mM sodium phosphate pH 7.4, 37°C) does the source give for `CC[C@H](C)[C@H](NC(=O)[C@H](CCCCN)NC(=O)[C@H](CCC(=O)O)NC(=O)[C@H](CCCCN)NC(=O)[C@H](CO)NC(=O)[C@H](CCCCN)NC(=O)[C@H](CCCNC(=N)N)NC(=O)[C@H](Cc1ccccc1)NC(=O)[C@H](Cc1ccccc1)NC(=O)[C@H](CC(=O)O)NC(=O)CNC(=O)[C@H](CC(C)C)NC(=O)[C@@H](N)CC(C)C)C(=O)NCC(=O)N[C@@H](CCCCN)C(=O)N[C@@H](CCC(=O)O)C(=O)N[C@@H](Cc1ccccc1)C(=O)N[C@@H](CCCCN)C(=O)N[C@@H](CCCNC(=N)N)C(=O)N[C@H](C(=O)N[C@H](C(=O)N[C@@H](CCC(N)=O)C(=O)N[C@@H](CCCNC(=N)N)C(=O)N[C@H](C(=O)N[C@@H](CCCCN)C(=O)N[C@@H](CC(=O)O)C(=O)N[C@@H](Cc1ccccc1)C(=O)N[C@@H](CC(C)C)C(=O)N[C@@H](CCCNC(=N)N)C(=O)N[C@@H](CC(N)=O)C(=O)N[C@@H](CC(C)C)C(=O)N[C@H](C(=O)N1CCC[C@H]1C(=O)N[C@@H](CCCNC(=N)N)C(=O)N[C@H](C(=O)N[C@@H](CCC(=O)O)C(=O)N[C@@H](CO)C(=O)O)[C@@H](C)O)C(C)C)[C@@H](C)CC)C(C)C)[C@@H](C)CC` [LL37, reference compound] here?
Its MIC is over 55 µM.

And the MIC ([2]; Sal. enterica (ATCC 14028), two-stage radial diffusion, 10 mM sodium phosphate pH 7.4, 37°C)?
Its MIC is 4.30 µM (≈ 19.3 µg/mL).

What about the MIC (Strep. uberis; Strep. uberis, two-stage radial diffusion, 10 mM sodium phosphate pH 7.4, 37°C) of the same compound?
The MIC was 2.24 µM (≈ 10.1 µg/mL).

What about the MIC (B. subtilis; B. subtilis, two-stage radial diffusion, 10 mM sodium phosphate pH 7.4, 37°C) of the same compound?
Its MIC is 8.62 µM (≈ 38.7 µg/mL).

And the MIC (E. coli DH5α; E. coli DH5α, two-stage radial diffusion, 0.8% agarose, 0.03% TSB, 10 mM sodium phosphate pH 7.4, 37°C, MIC = x intercept of regression line of zone diameters, read-out: MIC)?
The MIC was 5.57 µM (≈ 25 µg/mL).

And the MIC (C. albicans (ATCC 753); C. albicans (ATCC 753), two-stage radial diffusion, 10 mM sodium phosphate pH 7.4, 37°C)?
Its MIC is over 56 µM.

`CN(C)[C@@H]1C(O)=C(C(N)=O)C(=O)[C@@]2(O)C(O)=C3C(=O)c4c(O)cccc4[C@@](C)(O)[C@H]3C[C@@H]12` [Tetracycline] was tested. Which MIC (E. coli DH5α; [6]) did it give?
Its MIC is 4.5 µM (≈ 2 µg/mL).

And the “Relative potency of WAM1” value (E. coli DH5α)?
The value was 10 x.

With “KRGFGKKLRKRLKKFRNSIKKRLKNFNVVIPIPLPG [WAM1]” as the compound, how does the K. pneumoniae killed (K. pneumoniae [3]) read?
Its K. pneumoniae killed is 99.9%.

And the MIC ([1]; ATCC 19615, 3 h, pH 7.4)?
Its MIC is 0.66 µM.

And the MIC ([2]; ATCC 14028, 3 h, pH 7.4)?
Its MIC is 1.14 µM.

And the MIC (Strep. uberis; 3 h, pH 7.4)?
Its MIC is 1.22 µM.

What about the MIC (B. subtilis; 3 h, pH 7.4) of the same compound?
The MIC was 1.50 µM.

What about the MIC (E. coli DH5α; [7]) of the same compound?
Its MIC is 0.47 µM.

What about the MIC (E. coli DH5α; DH5α, 3 h, read-out: MIC) of the same compound?
The MIC was 0.47 µM.

And the “MIC 0 mM NaCl” value (A. baumannii)?
Its value is 1.9 µM.

What about the “MIC 150 mM NaCl” value (A. baumannii) of the same compound?
The value was 1.9 µM.

And the “MIC 200 mM NaCl” value (A. baumannii)?
Its value is 3.8 µM.

And the MIC [4]?
Its MIC is 0.77 µM.

What about the “MIC 0 mM NaCl” value (P. aeruginosa) of the same compound?
The value was 0.9 µM.

What about the “MIC 150 mM NaCl” value (P. aeruginosa) of the same compound?
Its value is 0.9 µM.

And the “MIC 200 mM NaCl” value (P. aeruginosa)?
The value was 0.9 µM.

What about the MIC (C. albicans (ATCC 753); ATCC 753, 3 h, pH 7.4) of the same compound?
Its MIC is 1.30 µM.

And the “Haemolytic activity against human red blood cells” value (human red blood cells)?
The value was “not hemolytic”.

And the MIC (S. aureus (ATCC 25923))?
The MIC was 1.01 µM.

And the “MIC 0 mM NaCl” value (K. pneumoniae [5])?
The value was 0.5 µM.

What about the “MIC 150 mM NaCl” value (K. pneumoniae [5]) of the same compound?
Its value is 0.9 µM.

And the “MIC 200 mM NaCl” value (K. pneumoniae [5])?
Its value is 0.9 µM.

Which MIC ([1]; ATCC 19615, 3 h, pH 7.4) does the source give for “KRGLWESLKRKATKLGDDIRNTLRNFKIKFPVPRQG [WAM2]” here?
The MIC was 0.39 µM.

What about the MIC ([2]; ATCC 14028, 3 h, pH 7.4) of the same compound?
Its MIC is 1.58 µM.

What about the MIC (Strep. uberis; 3 h, pH 7.4) of the same compound?
The MIC was 0.63 µM.

What about the MIC (B. subtilis; 3 h, pH 7.4) of the same compound?
Its MIC is 2.14 µM.

And the MIC (E. coli DH5α; [7])?
The MIC was 1.46 µM.

And the MIC [4]?
The MIC was 1.29 µM.

What about the MIC (C. albicans (ATCC 753); ATCC 753, 3 h, pH 7.4) of the same compound?
Its MIC is 1.47 µM.

What about the MIC (S. aureus (ATCC 25923)) of the same compound?
The MIC was 1.39 µM.

With RPWAGNGSVHRYTVLSPRLKTQ [PAM2] as the compound, how does the MIC ([1]; ATCC 19615, 3 h, pH 7.4) read?
The MIC was 0.83 µM.

And the MIC ([2]; ATCC 14028, 3 h, pH 7.4)?
Its MIC is 1.11 µM.

And the MIC (Strep. uberis; 3 h, pH 7.4)?
The MIC was 0.51 µM.

And the MIC (B. subtilis; 3 h, pH 7.4)?
The MIC was 3.37 µM.

What about the MIC (E. coli DH5α; [7]) of the same compound?
The MIC was 0.87 µM.

What about the MIC [4] of the same compound?
The MIC was 0.73 µM.

And the MIC (C. albicans (ATCC 753); ATCC 753, 3 h, pH 7.4)?
Its MIC is 2.50 µM.

And the MIC (S. aureus (ATCC 25923))?
The MIC was 2.42 µM.

“RRGFWKRLRRRLRRFGDRIRNRFRNFREKLPDPFPG [Ancestral WAM]” was tested. Which MIC ([1]; ATCC 19615, 3 h, pH 7.4) did it give?
Its MIC is 0.68 µM.

What about the MIC ([2]; ATCC 14028, 3 h, pH 7.4) of the same compound?
Its MIC is 0.96 µM.

And the MIC (Strep. uberis; 3 h, pH 7.4)?
Its MIC is 0.07 µM.

What about the MIC (B. subtilis; 3 h, pH 7.4) of the same compound?
Its MIC is 1.56 µM.

What about the MIC (E. coli DH5α; [7]) of the same compound?
Its MIC is 0.41 µM.

What about the MIC [4] of the same compound?
Its MIC is 2.06 µM.

What about the MIC (C. albicans (ATCC 753); ATCC 753, 3 h, pH 7.4) of the same compound?
Its MIC is 6.45 µM.

And the MIC (S. aureus (ATCC 25923))?
Its MIC is 1.42 µM.

What does the source list for “RTKRRIKLIKNGVKKVKDILKNNNIIILPGSNEK [PAM1]”?
MIC ([1]; ATCC 19615, 3 h, pH 7.4): 0.73 µM; MIC ([2]; ATCC 14028, 3 h, pH 7.4): 0.47 µM; MIC (Strep. uberis; 3 h, pH 7.4): 0.25 µM; MIC (B. subtilis; 3 h, pH 7.4): 1.96 µM; MIC (E. coli DH5α; [7]): 0.75 µM; MIC [4]: 1.89 µM; MIC (C. albicans (ATCC 753); ATCC 753, 3 h, pH 7.4): >20 µM; MIC (S. aureus (ATCC 25923)): 0.56 µM
